{
  "source": "patent US20260250629A1",
  "about": "“STEM CELLS BASED THREE-DIMENSIONAL EMBRYO MODEL” (CAMBRIDGE ENTERPRISE LIMITED, priority 2023, published 2026)",
  "type_in_all_cases": "cell-based, human",
  "key": {"hEOs [1]": {"test_system": "hEOs", "experiment": "Self-organization of hES cells into 3D hEOs, static 96-well culture", "experimental": "Inventors used W15-NANOS3-tdTomato and RUES2-GLR hES cell lines in this study. All hES cells were cultured in Essential 8™ (E8) medium (Life Technologies, A1517001) on freshly prepared Vitronectin (Fisher Scientific, A31804) coated 6-well plates in humidified chambers at 37° C. and 5% CO2. hES cells were passaged every 3-4 days (once they reached ~70% confluency) using 0.5 mM EDTA (ThermoFisher Scientific, AM9260G) in homemade phosphate buffer saline (1×PBS). The transient state of cells was induced, as described previously, with slight modifications^19. In brief, hES cell colonies (70% confluent) were dissociated into single cells using 0.25% Trypsin-EDTA (Life Technologies, 25200072), seeded (600,000 cells/well) into freshly prepared Vitronectin-coated 6-well plates (~30 mins). The cells were cultured for 24 h in the presence of Advanced RPMI 1640 (Life Technologies, 61870-036) supplemented with B27 supplement (1%) (ThermoFisher Scientific, 17504044), 0.1 mM NEAA, 100 U/ml Penicillin, 0.1 mg/ml Streptomycin, 2 mM L-glutamine, Activin A (1 μg/ml) (In-house produced by Biochemistry Department, University of Cambridge), Chiron (3 μM) (CHIR99021, TOCRIS 4423/10) and Rho-associated, coiled-coil containing protein kinase (ROCK) inhibitor (Rocki: 10 μM); Y27632) (hereafter called induction medium, IM). […]"}, "hPGCLCs": {"test_system": "hPGCLCs", "experiment": "hPGCLC specification in hEOs, NANOS3-tdTomato reporter", "experimental": "Inventors used W15-NANOS3-tdTomato and RUES2-GLR hES cell lines in this study. All hES cells were cultured in Essential 8™ (E8) medium (Life Technologies, A1517001) on freshly prepared Vitronectin (Fisher Scientific, A31804) coated 6-well plates in humidified chambers at 37° C. and 5% CO2. hES cells were passaged every 3-4 days (once they reached ~70% confluency) using 0.5 mM EDTA (ThermoFisher Scientific, AM9260G) in homemade phosphate buffer saline (1×PBS). The transient state of cells was induced, as described previously, with slight modifications^19. In brief, hES cell colonies (70% confluent) were dissociated into single cells using 0.25% Trypsin-EDTA (Life Technologies, 25200072), seeded (600,000 cells/well) into freshly prepared Vitronectin-coated 6-well plates (~30 mins). The cells were cultured for 24 h in the presence of Advanced RPMI 1640 (Life Technologies, 61870-036) supplemented with B27 supplement (1%) (ThermoFisher Scientific, 17504044), 0.1 mM NEAA, 100 U/ml Penicillin, 0.1 mg/ml Streptomycin, 2 mM L-glutamine, Activin A (1 μg/ml) (In-house produced by Biochemistry Department, University of Cambridge), Chiron (3 μM) (CHIR99021, TOCRIS 4423/10) and Rho-associated, coiled-coil containing protein kinase (ROCK) inhibitor (Rocki: 10 μM); Y27632) (hereafter called induction medium, IM).\nTransient cells induced in IM for 24 h were dissociated into single cells using 0.25% Trypsin-EDTA and seeded (400 cells/well) into Corning Clear Ultra-low attachment 96-well plates (Fisher Scientific 10023683). […]\nhEOs cultured on ultra-low attachment 96-well plates were collected, washed in 1×PBS and fixed in 4% PFA for 3-4 hours at room temperature or 1% PFA overnight at 4° C. hEOs were embedded in OCT mounting medium (VWR-361603E) and incubated in dry ice for 30 min before sectioning the frozen samples. An antigen retrieval procedure was performed to remove the fluorescence reporter from W15-NANOS3-tdTomato hES cell line, where required. […]"}, "hEOs [2]": {"test_system": "hEOs", "experiment": "Scaled static culture of hEOs in Aggrewell 400 plates", "experimental": "(§1) 24 well Aggrewell™ 400 plates (StemCell Technologies 34411) were pre-treated with 500 μl/well anti-adherence medium and centrifuged at 1300×g for 5 mins. After aspirating the medium, the wells were rinsed with 2 ml warm basal medium. Then, the medium was replaced by 1 ml warm organisation medium (OM). The plate was incubated at 37° C. at 5% CO2 until the cells were ready for seeding. OM comprised of Essential 6 (E6) medium (Life Technologies, A1516401) supplemented with 0.25 μM CH and ROCKi (10 μM). Pre-induced cells were dissociated using 0.25% Trypsin-EDTA, and 480,000 cells were seeded into each well of an Aggrewell™ 400 Plate at the rate of 400 cells/microwell and were centrifuged at 300×g for 3 mins. The final volume of medium in each well was 2 ml. Cells were cultured in Aggrewell plates at 37° C. at 5% CO2 for 4 days. The OM (without ROCKi) was replaced every day. On day 5, hEOs were manually picked and transferred to bottles for rotary culture in a bioreactor. From Day 5, hEOs were cultured in OM supplemented with 1 μM SB431542 at hypoxic conditions (5% O2, 5% CO2 and without ROCKi). The hEOs were collected at different time points for further analysis."}, "niSTEMBRYOs [3]": {"test_system": "niSTEMBRYOs", "experiment": "Contracting cardiomyocytes in niSTEMBRYOs"}, "niSTEMBRYOs [4]": {"test_system": "niSTEMBRYOs", "experiment": "Red hemogenic zones in niSTEMBRYOs"}, "hEOs [5]": {"test_system": "hEOs", "experiment": "Kinetic rotary culture of hEOs: growth and morphology", "experimental": "as §1, with “analysis. Medium containing human cord serum (HCS) (also known as ex-utero culture medium, EUCM) was used as described earlier^64. […]” for “analysis.”"}, "hEOs [6]": {"test_system": "hEOs", "experiment": "Frequency of beating hEOs (periodic contractions)", "experimental": "24 well Aggrewell™ 400 plates (StemCell Technologies 34411) were pre-treated with 500 μl/well anti-adherence medium and centrifuged at 1300×g for 5 mins. After aspirating the medium, the wells were rinsed with 2 ml warm basal medium. Then, the medium was replaced by 1 ml warm organisation medium (OM). The plate was incubated at 37° C. at 5% CO2 until the cells were ready for seeding. OM comprised of Essential 6 (E6) medium (Life Technologies, A1516401) supplemented with 0.25 μM CH and ROCKi (10 μM). Pre-induced cells were dissociated using 0.25% Trypsin-EDTA, and 480,000 cells were seeded into each well of an Aggrewell™ 400 Plate at the rate of 400 cells/microwell and were centrifuged at 300×g for 3 mins. The final volume of medium in each well was 2 ml. Cells were cultured in Aggrewell plates at 37° C. at 5% CO2 for 4 days. The OM (without ROCKi) was replaced every day. On day 5, hEOs were manually picked and transferred to bottles for rotary culture in a bioreactor. From Day 5, hEOs were cultured in OM supplemented with 1 μM SB431542 at hypoxic conditions (5% O2, 5% CO2 and without ROCKi). The hEOs were collected at different time points for further analysis. Medium containing human cord serum (HCS) (also known as ex-utero culture medium, EUCM) was used as described earlier^64. In brief, 25% human cord serum was mixed with 25% DMEM (Gibco 11880) (low glucose, no phenol red, no glutamine, no HEPES) and 50% rat serum. Glutamine and Penicillin-Streptomycin (50 units/ml penicillin) were added to the medium supplemented with 4 mg/ml glucose and HEPES (GIBCO 15630056, 11 mM) and 1 mM Sodium Pyruvate. Human cord serum was provided by the Cambridge Blood and Stem Cell Biobank, which is supported by the Cambridge NIHR Biomedical Research Centre, Wellcome Trust-MRC Stem Cell Institute, UK. Rat serum was heat-inactivated for 30 min at 56° C. and filtered through 0.22 μm PVDF filter, whereas human serum was heat inactivated at 55° C. for 45 minutes and sterilized through filtration by 0.22 μm filters. […]"}, "hEOs [7]": {"test_system": "hEOs", "experiment": "Frequency of hEOs with red inclusions (haematopoiesis)", "experimental": "as §1, with “On day 5, hEOs were manually picked and transferred to bottles for rotary culture in a bioreactor. From Day 5, hEOs were cultured in OM supplemented with 1 μM SB431542 at hypoxic conditions (5% O2, 5% CO2 and without ROCKi).” left out"}, "niSTEMBRYOs [8]": {"test_system": "niSTEMBRYOs", "experiment": "niSTEMBRYO static and kinetic culture: growth and morphology", "settings": "kinetic culture with SB"}, "niSTEMBRYOs [9]": {"test_system": "niSTEMBRYOs", "experiment": "Lineage marker expression and hindgut formation in niSTEMBRYOs"}},
  "data": [
    {"smiles": "Cc1c[nH]c(-c2cnc(NCCNc3ccc(C#N)cn3)nc2-c2ccc(Cl)cc2Cl)n1", "note": "[CH, CHIR99021]", "values": [
      {"measurement": "aggregates elongated along the longitudinal axis", "setting": "hEOs [1]; 0.25 μM CH, after two days, 1620/1800, N=10 experiments", "value": "more than 90%"},
      {"measurement": "self-organization of aggregates into 3D elongated structures", "setting": "hEOs [1]; CH 0.25 μM, 0.5 μM and 1.0 μM", "value": "sufficient to promote self-organization into 3D elongated structures"},
      {"measurement": "elongation of hEOs and hPGCLC specification (NANOS3-tdTomato reporter)", "setting": "hPGCLCs; CH 0.25 μM, from D2 until D8, without exogenous BMP2/4", "value": "both the elongation of hEOs and the specification of hPGCLCs"},
      {"measurement": "detection of hPGCLCs", "setting": "hPGCLCs; high concentration of CH (1.0 μM), D3 hEOs", "value": "No hPGCLCs were detected"},
      {"measurement": "elongation of the aggregates", "setting": "hEOs [2]; four days in the presence of CH, by day 4, 1845/3100, N=4 experiments", "value": "~ 60%"},
      {"measurement": "periodic contractions", "setting": "niSTEMBRYOs [3]; niSTEMBRYOs cultured with HCS or with CH alone", "value": "not evident"},
      {"measurement": "appearance of red hemogenic zones", "setting": "niSTEMBRYOs [4]; aggregates cultured in the presence of CH or HCS alone", "value": "did not appear"}
    ]},
    {"smiles": "c1ccc2c(-c3cnn4cc(-c5ccc(N6CCNCC6)cc5)cnc34)ccnc2c1", "note": "[LDN193189]", "values": [
      {"measurement": "effect of BMP inhibition on specification of hPGCLCs", "setting": "hPGCLCs; inhibitor present on D1, D2 or D3", "value": "affected the specification of hPGCLCs when present on D1 but not on D2 or D3"}
    ]},
    {"smiles": "NC(=O)c1ccc(-c2nc(-c3ccc4c(c3)OCO4)c(-c3ccccn3)[nH]2)cc1", "note": "[SB43, SB431542]", "values": [
      {"measurement": "increase in the frequency of elongated hEOs", "setting": "hEOs [2]; SB in the initial four-day static cultures, D4, p=0.0016", "value": 15, "unit": "%"},
      {"measurement": "hEO size", "setting": "hEOs [5]; kinetic culture with 1 μM SB43, with or without 10% Matrigel, after four days", "value": "doubled in size"},
      {"measurement": "hEO size relative to static culture on D4", "setting": "hEOs [5]; kinetic culture with SB, after 22 days", "value": "quadrupled in size"},
      {"measurement": "hEOs with periodic and highly localised contractions", "setting": "hEOs [6]; D7, kinetic culture with SB", "value": "~ 10%"},
      {"measurement": "hEOs with periodic and highly localised contractions", "setting": "hEOs [6]; D8, kinetic culture with SB", "value": "~70", "unit": "%"},
      {"measurement": "decrease in the number of beating hEOs", "setting": "hEOs [6]; SB in static and kinetic cultures vs SB only during kinetic cultures, D8, p<0.0001", "value": 40, "unit": "%"},
      {"measurement": "hEOs containing large internal red zones", "setting": "hEOs [7]; SB in rotary cultures, by day 15", "value": "~ 14%"},
      {"measurement": "red inclusion phenotype", "setting": "hEOs [7]; SB included in the 4D static culture", "value": "entirely lost"},
      {"measurement": "aggregate size", "setting": "niSTEMBRYOs [8]; after 14 days", "value": "quadrupling"},
      {"measurement": "aggregate size", "setting": "niSTEMBRYOs [8]; after four days", "value": "doubling in size"},
      {"measurement": "niSTEMBRYOs with periodic and highly localised contractions", "setting": "niSTEMBRYOs [3]; D8, kinetic culture with SB", "value": "~ 72%"},
      {"measurement": "appearance of contracting cardiomyocytes", "setting": "niSTEMBRYOs [3]; SB from D1 (SB early) vs SB from D4 (SB late)", "value": "not affected"},
      {"measurement": "niSTEMBRYOs with periodic and highly localised contractions", "setting": "niSTEMBRYOs [3]; after 7 days, kinetic culture with SB", "value": "~ 10%"},
      {"measurement": "haematopoiesis in niSTEMBRYOs", "setting": "niSTEMBRYOs [4]; SB43 from day 4 onwards (SB late)", "value": "promoted haematopoiesis"},
      {"measurement": "red hemogenic phenotype", "setting": "niSTEMBRYOs [4]; SB from D1 (SB early)", "value": "no red hemogenic phenotype was observed"},
      {"measurement": "niSTEMBRYOs developing visible red hemogenic zones", "setting": "niSTEMBRYOs [4]; SB in rotary cultures, from D14 onwards, N=196/1170, 5 experiments", "value": "~ 16%"},
      {"measurement": "hindgut (SOX17, SOX2 tubular structure)", "setting": "niSTEMBRYOs [9]; SB from D1 (SB early)", "value": "appearance of hindgut"},
      {"measurement": "expression of mesodermal marker TBXT", "setting": "niSTEMBRYOs [9]; SB from D1 (SB early), by D4", "value": "downregulated"},
      {"measurement": "hindgut", "setting": "niSTEMBRYOs [9]; SB from D4 (SB late)", "value": "absent"}
    ]}
  ]
}
